According to patent US11447466B2, “Substituted indole compounds useful as inhibitors of TLR7/8/9” (BRISTOL-MYERS SQUIBB COMPANY, priority 2017, dated 2022):

Tests used:
Type in all cases: cell-based
human TLR7 = molecular target: T1, human TLR7 (Homo sapiens, UniProt Q9NYK1); assay: TLR7 inhibition reporter assay (HEK-Blue SEAP reporter, gardiquimod stimulation); conditions: HEK-Blue cells overexpressing human TLR7, SEAP reporter, gardiquimod 7.5 μM, 22 hour incubation
T1 construct: host or cells: HEK-Blue cells
T1 sequence (Q9NYK1 27-1049): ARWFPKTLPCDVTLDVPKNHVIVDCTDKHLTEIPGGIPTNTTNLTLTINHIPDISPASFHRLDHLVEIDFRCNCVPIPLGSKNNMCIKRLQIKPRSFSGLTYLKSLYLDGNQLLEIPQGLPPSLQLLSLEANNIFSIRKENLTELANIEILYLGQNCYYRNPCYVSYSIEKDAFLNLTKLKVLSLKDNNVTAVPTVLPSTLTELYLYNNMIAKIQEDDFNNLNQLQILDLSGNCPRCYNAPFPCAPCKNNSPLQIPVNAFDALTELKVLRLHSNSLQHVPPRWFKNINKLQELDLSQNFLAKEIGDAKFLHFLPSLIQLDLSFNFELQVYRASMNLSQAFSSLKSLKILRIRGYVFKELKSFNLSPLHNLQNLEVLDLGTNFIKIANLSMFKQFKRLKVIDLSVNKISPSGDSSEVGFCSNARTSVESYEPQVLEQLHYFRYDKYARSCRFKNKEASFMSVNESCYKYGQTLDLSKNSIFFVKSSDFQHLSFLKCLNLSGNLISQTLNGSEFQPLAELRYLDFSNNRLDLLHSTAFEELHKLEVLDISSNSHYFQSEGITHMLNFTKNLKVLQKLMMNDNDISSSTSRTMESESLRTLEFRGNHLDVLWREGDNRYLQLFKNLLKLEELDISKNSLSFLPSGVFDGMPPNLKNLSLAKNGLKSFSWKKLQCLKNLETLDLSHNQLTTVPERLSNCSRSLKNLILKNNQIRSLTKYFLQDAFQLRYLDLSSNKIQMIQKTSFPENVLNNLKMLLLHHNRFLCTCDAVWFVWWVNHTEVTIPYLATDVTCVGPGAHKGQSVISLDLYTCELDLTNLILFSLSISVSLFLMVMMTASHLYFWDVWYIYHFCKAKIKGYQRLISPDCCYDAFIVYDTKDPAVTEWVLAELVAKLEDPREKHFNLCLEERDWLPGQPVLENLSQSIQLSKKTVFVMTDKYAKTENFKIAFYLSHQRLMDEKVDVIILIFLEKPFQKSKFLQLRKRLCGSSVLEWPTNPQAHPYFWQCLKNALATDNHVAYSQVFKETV
Summary of the method: (§1)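 Human TLR7/8/9 HEK-Blue reporter lines; dose range 0.05 nM–50 μM; 30 min RT preincubation; stimulus gardiquimod 7.5 μM / R848 15.9 μM / ODN2006 5 nM respectively; 22 h, 37 °C; SEAP detected colorimetrically.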

human TLR9 = molecular target: T2, human TLR9 (Homo sapiens, UniProt Q9NR96); assay: TLR9 inhibition reporter assay (HEK-Blue SEAP reporter, ODN2006 stimulation); conditions: HEK-Blue cells overexpressing human TLR9, SEAP reporter, ODN2006 5 nM, 22 hour incubation
T2 construct: host or cells: HEK-Blue cells
T2 sequence (Q9NR96 26-1032): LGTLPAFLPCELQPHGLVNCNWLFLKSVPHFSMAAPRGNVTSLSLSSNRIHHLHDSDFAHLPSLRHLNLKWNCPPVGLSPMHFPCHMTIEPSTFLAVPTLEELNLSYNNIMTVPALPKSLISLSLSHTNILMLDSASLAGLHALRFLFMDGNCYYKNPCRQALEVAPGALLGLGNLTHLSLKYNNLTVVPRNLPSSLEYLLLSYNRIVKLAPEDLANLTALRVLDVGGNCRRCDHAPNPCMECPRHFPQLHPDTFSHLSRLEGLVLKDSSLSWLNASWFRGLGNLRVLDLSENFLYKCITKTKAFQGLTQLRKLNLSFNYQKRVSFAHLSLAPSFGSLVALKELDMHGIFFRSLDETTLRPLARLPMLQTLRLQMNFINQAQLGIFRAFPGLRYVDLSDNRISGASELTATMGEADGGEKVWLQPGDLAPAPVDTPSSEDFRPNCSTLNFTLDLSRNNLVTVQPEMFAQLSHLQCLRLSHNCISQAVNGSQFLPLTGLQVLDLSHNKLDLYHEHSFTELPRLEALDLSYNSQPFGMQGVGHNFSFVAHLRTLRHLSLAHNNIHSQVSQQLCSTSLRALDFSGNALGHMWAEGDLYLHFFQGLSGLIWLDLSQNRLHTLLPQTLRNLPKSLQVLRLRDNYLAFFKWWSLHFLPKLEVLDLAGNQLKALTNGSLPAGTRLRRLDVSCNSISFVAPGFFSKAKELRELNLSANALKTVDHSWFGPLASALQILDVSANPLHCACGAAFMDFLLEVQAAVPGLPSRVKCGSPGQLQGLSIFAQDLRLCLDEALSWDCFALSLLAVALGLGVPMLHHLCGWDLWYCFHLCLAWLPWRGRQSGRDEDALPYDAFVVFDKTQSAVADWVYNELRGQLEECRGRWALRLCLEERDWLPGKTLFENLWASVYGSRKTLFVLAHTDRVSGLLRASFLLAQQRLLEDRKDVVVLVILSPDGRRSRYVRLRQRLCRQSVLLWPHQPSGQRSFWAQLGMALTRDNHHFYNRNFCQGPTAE
Summary of the method: as §1

human TLR8 = molecular target: T3, human TLR8 (Homo sapiens, UniProt Q9NR97); assay: TLR8 inhibition reporter assay (HEK-Blue SEAP reporter, R848 stimulation); conditions: HEK-Blue cells overexpressing human TLR8, SEAP reporter, R848 15.9 μM, 22 hour incubation
T3 construct: host or cells: HEK-Blue cells
T3 sequence (Q9NR97 27-1041): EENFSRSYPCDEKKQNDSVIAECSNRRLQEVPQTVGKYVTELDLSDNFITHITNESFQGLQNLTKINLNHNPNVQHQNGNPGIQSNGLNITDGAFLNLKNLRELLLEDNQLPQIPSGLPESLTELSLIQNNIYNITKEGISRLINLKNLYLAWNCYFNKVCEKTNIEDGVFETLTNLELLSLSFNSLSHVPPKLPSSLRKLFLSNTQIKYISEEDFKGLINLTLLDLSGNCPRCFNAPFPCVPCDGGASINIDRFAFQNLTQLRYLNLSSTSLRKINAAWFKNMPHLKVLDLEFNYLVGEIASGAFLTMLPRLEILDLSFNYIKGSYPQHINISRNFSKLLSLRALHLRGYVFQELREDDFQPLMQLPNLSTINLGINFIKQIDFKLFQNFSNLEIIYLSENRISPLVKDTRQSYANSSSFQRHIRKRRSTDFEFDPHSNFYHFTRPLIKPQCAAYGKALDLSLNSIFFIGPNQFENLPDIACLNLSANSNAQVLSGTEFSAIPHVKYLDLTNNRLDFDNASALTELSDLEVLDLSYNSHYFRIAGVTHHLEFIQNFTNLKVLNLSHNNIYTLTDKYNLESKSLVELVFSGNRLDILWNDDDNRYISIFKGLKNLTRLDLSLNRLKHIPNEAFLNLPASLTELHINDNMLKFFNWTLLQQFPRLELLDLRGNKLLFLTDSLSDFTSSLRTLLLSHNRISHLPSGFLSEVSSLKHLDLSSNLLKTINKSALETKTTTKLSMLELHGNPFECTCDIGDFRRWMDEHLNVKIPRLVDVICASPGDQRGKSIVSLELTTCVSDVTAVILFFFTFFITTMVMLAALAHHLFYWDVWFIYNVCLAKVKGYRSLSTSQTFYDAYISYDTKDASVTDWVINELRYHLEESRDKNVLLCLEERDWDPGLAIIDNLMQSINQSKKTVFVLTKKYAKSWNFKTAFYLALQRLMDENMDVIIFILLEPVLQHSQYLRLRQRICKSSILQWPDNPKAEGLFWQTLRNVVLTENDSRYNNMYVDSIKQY
Summary of the method: as §1

IC50 (human TLR7) [µM]	IC50 (human TLR9) [µM]	IC50 (human TLR8) [µM]	SMILES
0.0102	16.6	0.0197	COCCn1cc(-c2[nH]c3ccc(C4CCN(CC(=O)N(C)C)CC4)cc3c2C(C)C)cc(C)c1=O [Example 159, 2-(4-(3-isopropyl-2-(1-(2-methoxyethyl)-5-methyl-6-oxo-1,6-dihydropyridin-3-yl)-1H-indol-5-yl)piperidin-1-yl)-N,N-dimethylacetamide]
0.0505	8.73	0.239	CNC(=O)CN1CCC(c2ccc3[nH]c(-c4cc(C)c(=O)n(CC(C)C)c4)c(C(C)C)c3c2)CC1 [Example 161, 2-(4-(2-(1-isobutyl-5-methyl-6-oxo-1,6-dihydropyridin-3-yl)-3-isopropyl-1H-indol-5-yl)piperidin-1-yl)-N-methylacetamide]
0.0123	3.89	0.118	Cc1cc(-c2[nH]c3ccc(C4CCN(CC(=O)N(C)C)CC4)cc3c2C(C)C)cn(CC(C)C)c1=O [Example 163, 2-(4-(2-(1-isobutyl-5-methyl-6-oxo-1,6-dihydropyridin-3-yl)-3-isopropyl-1H-indol-5-yl)piperidin-1-yl)-N,N-dimethylacetamide]
0.0458	10.1	0.113	Cc1cc(-c2[nH]c3ccc(C4CCN(CC(=O)N(C)C)CC4)cc3c2C(C)C)cn(CC(F)(F)F)c1=O [Example 165, 2-(4-(3-isopropyl-2-(5-methyl-6-oxo-1-(2,2,2-trifluoroethyl)-1,6-dihydropyridin-3-yl)-1H-indol-5-yl)piperidin-1-yl)-N,N-dimethylacetamide]
0.0617	49.3	0.0156	Cc1cc(-c2[nH]c3ccc(C4CCN(CC(=O)N(C)C)CC4)cc3c2C(C)C)cn(CCO)c1=O [Example 167, 2-(4-(2-(1-(2-hydroxyethyl)-5-methyl-6-oxo-1,6-dihydropyridin-3-yl)-3-isopropyl-1H-indol-5-yl)piperidin-1-yl)-N,N-dimethylacetamide]
0.0079	2.38	0.0103	CCc1cc(-c2[nH]c3ccc(C4CCN(CC(=O)N(C)C)CC4)cc3c2C(C)C)cn(C)c1=O [Example 168, 2-(4-(2-(5-ethyl-1-methyl-6-oxo-1,6-dihydropyridin-3-yl)-3-isopropyl-1H-indol-5-yl)piperidin-1-yl)-N,N-dimethylacetamide]

Further lines, the compound ahead of its results:

SMILES	IC50 (human TLR7) [µM]	IC50 (human TLR9) [µM]	IC50 (human TLR8) [µM]
CCc1c(-c2cn(C)c(=O)c(Cl)c2C)[nH]c2ccc(C3CCN(CC(=O)N(C)C)CC3)cc12 [Example 157, 2-(4-(2-(5-chloro-1,4-dimethyl-6-oxo-1,6-dihydropyridin-3-yl)-3-ethyl-1H-indol-5-yl)piperidin-1-yl)-N,N-dimethylacetamide]	0.0128	6.39	0.0122
Cc1c(-c2[nH]c3ccc(C4CCN(CC(=O)N(C)C)CC4)c(F)c3c2C(C)C)cn(C)c(=O)c1Cl [Example 158, 2-(4-(2-(5-chloro-1,4-dimethyl-6-oxo-1,6-dihydropyridin-3-yl)-4-fluoro-3-isopropyl-1H-indol-5-yl)piperidin-1-yl)-N,N-dimethylacetamide]	0.0066	3.53	0.0026
CNC(=O)CN1CCC(c2ccc3[nH]c(-c4cc(C)c(=O)n(CCOC)c4)c(C(C)C)c3c2)CC1 [Example 160, 2-(4-(3-isopropyl-2-(1-(2-methoxyethyl)-5-methyl-6-oxo-1,6-dihydropyridin-3-yl)-1H-indol-5-yl)piperidin-1-yl)-N-methylacetamide]	0.0089	14.7	0.0145
CNC(=O)CN1CCC(c2ccc3[nH]c(-c4cc(C)c(=O)n(Cc5ccccc5)c4)c(C(C)C)c3c2)CC1 [Example 162, 2-(4-(2-(1-benzyl-5-methyl-6-oxo-1,6-dihydropyridin-3-yl)-3-isopropyl-1H-indol-5-yl)piperidin-1-yl)-N-methylacetamide]	0.0084	4.12	0.0994
Cc1cc(-c2[nH]c3ccc(C4CCN(CC(=O)N(C)C)CC4)cc3c2C(C)C)cn(Cc2ccccc2)c1=O [Example 164, 2-(4-(2-(1-benzyl-5-methyl-6-oxo-1,6-dihydropyridin-3-yl)-3-isopropyl-1H-indol-5-yl)piperidin-1-yl)-N,N-dimethylacetamide]	0.007	2.56	0.0424
CC(C)c1c(-c2cc(-c3cccnc3)c(=O)n(C)c2)[nH]c2ccc(C3CCN(CC(=O)N(C)C)CC3)cc12 [Example 169, 2-(4-(3-isopropyl-2-(1-methyl-2-oxo-1,2-dihydro-[3,3′-bipyridin]-5-yl)-1H-indol-5-yl)piperidin-1-yl)-N,N-dimethylacetamide]	0.0119	1.8	0.0062
CC(C)c1c(-c2cc(-c3ccccc3)c(=O)n(C)c2)[nH]c2ccc(C3CCN(CC(=O)N(C)C)CC3)cc12 [Example 170, 2-(4-(3-isopropyl-2-(1-methyl-6-oxo-5-phenyl-1,6-dihydropyridin-3-yl)-1H-indol-5-yl)piperidin-1-yl)-N,N-dimethylacetamide]	0.0198	2.08	0.0144
